{"source": "patent US6462016B1", "about": "(Shiseido Company, Ltd., priority 1995, dated 2002)", "key": {"[1]": {"target": "T1, maxadilan receptor in crude membrane fraction from the mouse brain (Mus musculus, UniProt P70205)", "T1 construct": "Likewise, crude membrane fractions were prepared; from tissue; host or cells: mouse brain, crude membrane fraction", "T1 sequence (P70205 21-496)": "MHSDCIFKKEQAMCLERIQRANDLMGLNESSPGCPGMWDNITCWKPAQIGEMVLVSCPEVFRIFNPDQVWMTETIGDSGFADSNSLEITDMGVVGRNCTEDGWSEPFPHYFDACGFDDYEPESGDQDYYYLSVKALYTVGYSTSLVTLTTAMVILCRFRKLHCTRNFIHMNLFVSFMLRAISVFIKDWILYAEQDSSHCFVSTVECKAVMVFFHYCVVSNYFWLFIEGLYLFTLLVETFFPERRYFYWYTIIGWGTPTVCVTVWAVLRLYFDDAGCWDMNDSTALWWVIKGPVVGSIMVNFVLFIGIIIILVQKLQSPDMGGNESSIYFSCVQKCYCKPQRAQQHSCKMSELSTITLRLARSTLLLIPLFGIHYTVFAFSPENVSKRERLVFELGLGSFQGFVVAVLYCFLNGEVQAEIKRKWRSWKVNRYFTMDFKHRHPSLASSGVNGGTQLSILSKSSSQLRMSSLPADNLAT", "assay": "Binding test (tissue): 125I-Max, mouse brain crude membrane fraction", "protocol": "(§1) Likewise, crude membrane fractions were prepared, respectively, from the brain, liver, pancreas, spleen, aorta and kidney of a rabbit, and the brains of a rat, a mouse, cattle and a human being.\n(§2) After completion of the reaction, ^125I-Max bound to the membrane was separated by subjecting the resultant incubation matter to suction filtration using a GF/C glass filter (Whatman GF/C), and the radioactivity of the glass filter after being dried was measured by a γ-counter."}, "[2]": {"target": "maxadilan receptor in crude membrane fraction from the rabbit spleen", "assay": "Binding test (tissue): 125I-Max, rabbit spleen crude membrane fraction", "details": "read-out: dissociation constant (Kd)", "protocol": "as §1, §2"}, "[3]": {"tested_on": "rat pancreas smooth muscle MILE cell", "assay": "cAMP production in MILE cell", "assay_type": "cell-based"}, "[4]": {"tested_on": "rat adrenal medulla melanocytoma PC-12", "assay_type": "cell-based"}, "[5]": {"target": "T2, maxadilan receptor in crude membrane fraction from the rat brain (Rattus norvegicus, UniProt P32215)", "T2 construct": "Likewise, crude membrane fractions were prepared; from tissue; host or cells: rat brain, crude membrane fraction", "T2 sequence (P32215 20-523)": "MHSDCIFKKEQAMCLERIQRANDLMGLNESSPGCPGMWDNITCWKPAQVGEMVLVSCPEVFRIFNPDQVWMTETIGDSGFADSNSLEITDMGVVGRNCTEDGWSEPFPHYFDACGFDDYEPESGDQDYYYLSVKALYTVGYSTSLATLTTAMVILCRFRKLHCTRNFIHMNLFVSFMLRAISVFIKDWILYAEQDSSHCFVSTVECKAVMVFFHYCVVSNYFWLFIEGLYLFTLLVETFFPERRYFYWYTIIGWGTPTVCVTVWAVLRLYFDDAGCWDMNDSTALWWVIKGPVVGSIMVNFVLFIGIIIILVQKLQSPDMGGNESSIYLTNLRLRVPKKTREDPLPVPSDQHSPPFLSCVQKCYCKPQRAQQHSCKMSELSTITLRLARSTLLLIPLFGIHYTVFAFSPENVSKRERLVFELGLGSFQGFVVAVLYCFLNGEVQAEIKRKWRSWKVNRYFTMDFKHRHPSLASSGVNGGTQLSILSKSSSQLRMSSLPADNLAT", "assay": "Binding test (tissue): 125I-Max, rat brain crude membrane fraction", "protocol": "as §1, §2"}, "[6]": {"target": "T3, maxadilan receptor in crude membrane fraction from the brain of a human being (Homo sapiens, UniProt P41586)", "T3 construct": "Likewise, crude membrane fractions were prepared; from tissue; host or cells: human brain, crude membrane fraction", "T3 sequence (P41586 21-468)": "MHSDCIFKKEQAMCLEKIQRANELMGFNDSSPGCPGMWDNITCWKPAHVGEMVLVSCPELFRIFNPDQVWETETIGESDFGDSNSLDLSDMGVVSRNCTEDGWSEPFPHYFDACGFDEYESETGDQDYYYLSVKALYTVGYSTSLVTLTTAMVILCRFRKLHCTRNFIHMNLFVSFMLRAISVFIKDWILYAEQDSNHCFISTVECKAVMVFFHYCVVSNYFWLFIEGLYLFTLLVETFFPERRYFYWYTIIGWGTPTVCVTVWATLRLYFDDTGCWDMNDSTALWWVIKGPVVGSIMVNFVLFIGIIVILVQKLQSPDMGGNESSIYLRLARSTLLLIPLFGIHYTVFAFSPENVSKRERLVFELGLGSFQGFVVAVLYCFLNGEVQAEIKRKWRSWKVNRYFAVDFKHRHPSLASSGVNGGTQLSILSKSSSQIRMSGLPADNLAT", "assay": "Binding test (tissue): 125I-Max, human brain crude membrane fraction", "protocol": "as §1, §2"}, "[7]": {"target": "T4, maxadilan receptor in crude membrane fraction from the cattle brain (Bos taurus, UniProt Q29627)", "T4 construct": "Likewise, crude membrane fractions were prepared; from tissue; host or cells: cattle brain, crude membrane fraction", "T4 sequence (Q29627 38-513)": "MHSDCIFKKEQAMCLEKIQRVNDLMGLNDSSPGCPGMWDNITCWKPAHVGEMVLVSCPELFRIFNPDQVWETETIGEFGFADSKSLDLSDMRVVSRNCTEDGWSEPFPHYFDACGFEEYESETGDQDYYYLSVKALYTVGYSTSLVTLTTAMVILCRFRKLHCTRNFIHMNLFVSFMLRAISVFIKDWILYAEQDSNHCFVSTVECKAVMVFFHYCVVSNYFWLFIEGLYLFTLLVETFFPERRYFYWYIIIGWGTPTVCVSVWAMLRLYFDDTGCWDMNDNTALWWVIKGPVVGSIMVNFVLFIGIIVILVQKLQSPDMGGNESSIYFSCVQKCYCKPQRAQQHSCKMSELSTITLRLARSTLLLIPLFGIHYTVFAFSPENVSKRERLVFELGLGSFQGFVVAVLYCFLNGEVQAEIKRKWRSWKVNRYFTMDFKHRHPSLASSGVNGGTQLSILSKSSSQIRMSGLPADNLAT", "assay": "Binding test (tissue): 125I-Max, cattle brain crude membrane fraction", "protocol": "as §1, §2"}, "rabbit skin": {"tested_on": "rabbit skin", "assay_type": "in vivo"}, "NBf1 cell": {"tested_on": "NBf1 cell", "assay": "cAMP production in NBf1 cell", "assay_type": "cell-based, human"}}, "data": [{"substance": "maxadilan", "values": [{"measurement": "maximum binding amount (Bmax)", "setting": "[1]", "result": 53, "unit": "fmol/mg"}, {"measurement": "Kd", "setting": "[2]", "result": 0.055, "unit": "nM"}, {"measurement": "cAMP production", "setting": "[3]", "result": "likewise observed"}, {"measurement": "cAMP production", "setting": "[4]; PC-12 cell (1×10^6), 37° C. 10 minutes", "result": "significantly promotes cAMP production"}, {"measurement": "time course of cAMP production after stimulation", "setting": "[4]; PC-12 cell, 100 nM maxadilan, 37° C., various time", "result": "conducted in an instant"}, {"measurement": "maximum binding amount (Bmax)", "setting": "[5]", "result": 68, "unit": "fmol/mg"}, {"measurement": "specific binding to crude membrane fraction", "setting": "[6]", "result": "specific binding of Max is also recognized"}, {"measurement": "maximum binding amount (Bmax)", "setting": "[7]", "result": 17, "unit": "fmol/mg"}, {"measurement": "specific binding to crude membrane fraction", "setting": "[7]", "result": "specific binding of Max is also recognized"}, {"measurement": "Erythema formation activity", "setting": "rabbit skin; 50 μl dilutions at various concentrations intracutaneously into white rabbits, observed 30 minutes and 2 hours after injection", "result": "10^−12"}, {"measurement": "erythema formation action (in words)", "setting": "rabbit skin; intracutaneous injection, rabbit", "result": "superior to that of natural maxadilan"}, {"measurement": "cAMP production", "setting": "NBf1 cell", "result": "likewise observed"}]}]}
